In patent US20090298811A1, “BENZIMIDAZOLONE DERIVATIVES” (Pfizer Inc, priority 2006, published 2009):
pEC50, pKi: −log10 of the molar value. Structures can show the parent of a compound that is named as a salt.

Tests used:
[1] = target: T1, human CB1 receptor (Homo sapiens, UniProt P21554); test: GTPγS binding on membranes of CHO cells expressing the human CB1 receptor; assay type: biochemical; set-up: expressed in transfected cells; host or cells: CHO cells (G418 selection); membranes; conditions: CHO cell membranes, [35S] GTPγS
Description: Membrane preparation: CHO cells expressing the human CB1 receptor were grown to 80% confluence in Ham's F-12 Nutrient Medium (Invitrogen) containing 10% fetal bovine serum (Invitrogen), 1% pen/strep (Invitrogen), 1% Nonessential amino acids (Invitrogen) and 500 μg/ml G418 (Invitrogen). Cells were released from flasks using Cell Dissociation Buffer (Invitrogen). Cells were pelleted by centrifugation at 500×G for 5 minutes. Membranes were prepared by resuspending cells in ice cold Assay Buffer (25 mM Tris pH 7.4, 5 mM EDTA, 5 mM EGTA, Complete Protease Inhibitor (Roche)). Cells were lysed with 12 strokes of a dounce homogenizer. Unlysed cells were pelleted by centrifugation at 500×G for 5 minutes. Membranes were pelleted by centrifugation at 25,000×G for 30 minutes. Membranes were resuspended in TEE, dounced 12 strokes, and pelleted a second time at 25,000×G for 30 minutes. Membrane pellet was resuspended in 50 mM Tris pH 7.4, 100 mM NaCl, 3 mM MgCl2, 0.2 mM EGTA, Complete Protease Inhibitor (Roche). Protein concentration was determined using the Micro-BCA Protein Assay Kit (Pierce) using BSA as a standard. Membranes were frozen and stored at −80 degrees Celsius until use. GTPγS Binding: 40 μl of test compound was incubated with 20 μl of [^35S] GTPγS (Perkin Elmer) (1250 Ci/millimole) and 140 μl of membrane homogenate (5 ug/well) in polypropylene 96-well plates (Corning). Final reaction conditions were 50 mM Tris pH 7.4, 100 mM NaCl, 3 mM […], 0.2 mM EGTA, 0.04% BSA. After incubation at 37 degrees Celsius for 45 minutes reactions were harvested by vacuum filtration through Unifilter GF/B-96 filters (Perkin Elmer) using a FilterMate Plate Harvester (Perkin Elmer). Filters were rinsed 4 times with ice cold 50 mM Tris pH 7.4, 3 mM MgCl2, 0.2 mM EGTA and dried at 50 degrees Celsius for at least 30 minutes. 40 μl of Microscint-20 (Perkin Elmer) was added per well, and plates were counted using a Top-Count Microplate Scintillation Counter (Perkin Elmer). Binding data were analyzed and EC50 values were calculated using Graph Pad Prism 4.0 Software.

[2] = target: T1, human CB1 receptor; test: Human CB1 receptor binding, [3H] CP-55,940 displacement on HEK cell membranes; set-up: expressed in transfected cells; membranes; conditions: [3H] CP-55,940 500 pM
Description: The Human CB1 receptor binding affinity and other biological activities of the compounds of this invention are determined by the following procedures.
Membrane preparation: Human Embryonic Kidney (HEK) Cells expressing the human CB1 receptor under transcriptional regulation of a tetracycline inducible promoter were grown in Dulbecco's Modified Essential Medium with sodium pyruvate (Invitrogen, Carlsbad, Calif.) containing 10% tetracycline free fetal bovine serum (Clonetech, Mountain View, Calif.) 100 μg/ml hygromycin (Calbiochem, San Diego, Calif.), 5 μg/ml blasticidin (Invitrogen). CB1 receptor expression was induced by addition of 1 μg/ml doxycycline (Calbiochem) and incubation for an additional 24 hours. Cells were released from flasks using Cell Dissociation Buffer (Invitrogen). Cells were pelleted by centrifugation at 500×G for 5 minutes. Membranes were prepared by resuspending cells in ice cold TEE Buffer (25 mM Tris pH 7.4, 5 mM EDTA, 5 mM EGTA, Complete Protease Inhibitor (Roche, Basel, Switzerland)). Cells were lysed with 12 strokes of a dounce homogenizer. Unlysed cells were pelleted by centrifugation at 500×G for 5 minutes. Membranes were pelleted by centrifugation at 25,000×G for 30 minutes. Membranes were resuspended in TEE, dounced 12 strokes, and pelleted a second time at 25,000×G for 30 minutes. Membrane pellet was resuspended in 50 mM Tris pH 7.4, 100 mM NaCl, 3 mM MgCl2, 0.2 mM EGTA, Complete Protease Inhibitor (Roche). Protein concentration was determined using the Micro-BCA Protein Assay Kit (Pierce, Rockford, Ill.) using BSA as a standard. Membranes were quick frozen and stored at −80 degrees Celsius until use. Binding experiments: 50 μl of test compound was incubated with 50 μl, of [^3H] CP-55,940 (Perkin Elmer, Boston, Mass.) (final concentration 500 pM) and 150 μl of membrane homogenate (1 μg/well) in polypropylene 96-well plates (Corning, Acton, Mass.). Final reaction conditions were 50 mM Tris pH 7.4, 100 mM NaCl, 3 mM MgCl2, 0.2 mM EGTA, 0.04% BSA. Nonspecific binding was determined by incubation with 50 μM WIN-55,212-2 (Tocris, Ellisville, Mo.). After incubation at room temperature for 60 minutes reactions were harvested by vacuum filtration through Unifilter GF/B-96 filters (Perkin Elmer) that had been presoaked in assay buffer containing 0.5% BSA (Sigma, St. Louis, Mo.) using a FilterMate Plate Harvester (Perkin Elmer). Filters were rinsed 4 times with 50 mM Tris pH 7.4, 0.025% Tween20 and dried at 50 degrees Celsius for at least 30 minutes. 40 μl of Microscint-20 (Perkin Elmer) was added per well, and plates were counted using a Top-Count Microplate Scintillation Counter (Perkin Elmer). Binding data were analyzed and EC50 and Ki values calculated using Graph Pad Prism 4.0 Software.

T1 sequence (P21554 whole entry): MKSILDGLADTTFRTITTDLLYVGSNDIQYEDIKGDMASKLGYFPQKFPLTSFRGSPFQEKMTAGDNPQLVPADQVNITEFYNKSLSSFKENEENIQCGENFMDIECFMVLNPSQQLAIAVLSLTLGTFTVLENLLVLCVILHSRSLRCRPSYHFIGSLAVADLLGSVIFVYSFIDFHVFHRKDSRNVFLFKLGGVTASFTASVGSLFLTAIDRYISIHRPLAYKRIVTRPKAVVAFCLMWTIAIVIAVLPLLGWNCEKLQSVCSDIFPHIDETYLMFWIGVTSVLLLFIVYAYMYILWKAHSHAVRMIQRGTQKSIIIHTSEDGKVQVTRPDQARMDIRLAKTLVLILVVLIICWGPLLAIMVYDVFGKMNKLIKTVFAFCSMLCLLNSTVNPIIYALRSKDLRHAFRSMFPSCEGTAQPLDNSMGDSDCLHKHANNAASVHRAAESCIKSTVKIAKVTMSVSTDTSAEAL

| SMILES | melting point [°C] | pEC50 [1] | pKi [2] |
| --- | --- | --- | --- |
| Cc1cccc2c1n(CCS(C)(=O)=O)c(=O)n2C(=O)N[C@H](C(=O)N(C)C)C(C)(C)C | 190.7 | – | – |
| CC[C@H](C)[C@H](NC(=O)n1c(=O)n(CCN2CCCCC2)c2ccccc21)C(N)=O (as salt: hydrochloride) | 217.1 | – | – |
| O=C(N[C@H]1CCCc2ccccc21)n1c(=O)n(CC2CCC2)c2ccccc21 [Example 198] | – | 7.33 | 8.24 |
| CC(C)(C)[C@H](NC(=O)n1c(=O)n(CCC2CCC2)c2ccccc21)C(N)=O [Example 217] | – | 8.49 | 8.89 |
| Cc1nc(C(C)NC(=O)n2c(=O)n(CC3CCOCC3)c3ccccc32)cs1 (stereo not shown) [Example 350] | – | 6.88 | 7.87 |
| CC(C)(C)[C@H](NC(=O)n1c(=O)n(CC2CCCCC2)c2ncccc21)C(N)=O [Example 226] | – | 7.21 | 8.27 |
| Cc1nc(CNC(=O)n2c(=O)n(CC3CCOCC3)c3ccccc32)cs1 [Example 341] | – | 6.45 | 7.61 |
| CC(C)(C)[C@H](NC(=O)n1c(=O)n(CC2CCCCC2)c2c(Cl)cccc21)C(N)=O [Example 173] | – | 8.60 | 9.47 |
| CCCCCn1c(=O)n(C(=O)N[C@H](C(N)=O)C(C)(C)C)c2cccnc21 [Example 365] | – | 5.99 | 7.02 |
| CC(C)(C)[C@H](NC(=O)n1c(=O)n(CC2CC=C(F)CC2)c2ccccc21)C(N)=O (stereo partly shown) [Example 304] | – | 9.06 | 9.82 |
| CC(C)(C)[C@H](NC(=O)n1c(=O)n(CC2CCCCC2)c2c(F)cccc21)C(N)=O [Example 172] | – | 8.11 | 9.11 |
| O=C(N[C@H]1CCCC[C@@H]1O)n1c(=O)n(CC2CCCCC2)c2ccccc21 [Example 191] | – | 6.40 | 7.98 |
| Cc1ccc2c(c1)n(CC1CCCCC1)c(=O)n2C(=O)N[C@H](C(N)=O)C(C)C [Example 269] | – | 7.62 | 8.53 |
| CC(C)(C)[C@H](NC(=O)n1c(=O)n(CC2CCOCC2)c2ccccc21)C(=O)NC1CC1 [Example 298] | – | 7.05 | 8.28 |
| CC(C)(C)[C@H](NC(=O)n1c(=O)n(CC2CCCCC2)c2cc(Cl)ccc21)C(N)=O [Example 170] | – | 8.73 | 9.55 |
| CC(C)[C@H](NC(=O)n1c(=O)n(CC2CCCCC2)c2ccccc21)C(N)=O [Example 203] | – | 7.13 | 8.08 |
| CC(C)(C)[C@H](NC(=O)n1c(=O)n(CC2CCOCC2)c2cc(F)ccc21)c1nnc(N)o1 [Example 347] | – | 6.64 | 8.02 |
| Cc1ccc2c(c1)n(CC1CCCCC1)c(=O)n2C(=O)N[C@H](CC(C)C)C(N)=O [Example 267] | – | < 5.00 | 7.74 |
| Cc1cc(CNC(=O)n2c(=O)n(CC3CCOCC3)c3ccccc32)c(C)o1 [Example 311] | – | 7.24 | 8.69 |
| CC(C)(C)[C@H](NC(=O)n1c(=O)n(CC2CCC(F)(F)CC2)c2ccccc21)C(N)=O [Example 306] | – | 8.46 | 9.51 |

| SMILES | melting point [°C] | pEC50 [1] | pKi [2] |
| --- | --- | --- | --- |
| Cc1ccc2c(c1)n(CC1CCCCC1)c(=O)n2C(=O)NC1(C(N)=O)CCCCC1 [Example 266] | – | < 5.55 | 6.96 |
| Cc1nc(C(F)(F)F)c(CNC(=O)n2c(=O)n(CC3CCOCC3)c3ccccc32)s1 [Example 349] | – | 6.80 | 7.72 |
| CC(C)(C)[C@H](NC(=O)n1c(=O)n(Cc2ccccc2)c2ccccc21)C(=O)NCCO [Example 360] | – | 6.83 | 7.71 |
| CCc1nc(CNC(=O)n2c(=O)n(CC3CCOCC3)c3ccccc32)no1 [Example 327] | – | < 5.00 | 7.44 |
| CCCCCn1c(=O)n(C(=O)N[C@H](CO)C(C)(C)C)c2ccccc21 [Example 178] | – | 6.86 | 8.07 |
| Cc1ccc2c(c1)n(CC1CCCCC1)c(=O)n2C(=O)N[C@H](C(N)=O)C1CCCCC1 [Example 273] | – | 6.61 | 7.24 |
| CC(C)(C)[C@H](NC(=O)n1c(=O)n(CC2CCOCC2)c2ccccc21)C(=O)NC1CCC1 [Example 300] | – | 6.59 | 7.39 |
| CC(C)(C)[C@H](NC(=O)n1c(=O)n(Cc2ccccc2)c2ccccc21)C(=O)NCCCO [Example 361] | – | 6.60 | 7.61 |
| Cc1cc(CNC(=O)n2c(=O)n(CC3CCOCC3)c3ccccc32)c(C(F)(F)F)o1 [Example 320] | – | 7.01 | 8.38 |
| CC(C)(C)[C@H](NC(=O)n1c(=O)n(CC2CCCCC2)c2cc(Br)ccc21)C(N)=O [Example 307] | – | 7.31 | 8.73 |
| CC(C)(C)[C@H](NC(=O)n1c(=O)n(CC2CCOCC2)c2cc(F)ccc21)C(=O)NCCCO [Example 355] | – | 6.44 | 8.17 |
| Cc1cccc2c1n(CC1CCCCC1)c(=O)n2C(=O)N[C@H](C(N)=O)C(C)(C)C [Example 174] | – | 8.08 | 9.49 |
| CC(C)(C)[C@H](NC(=O)n1c(=O)n(CCCC(F)(F)F)c2ccccc21)C(N)=O [Example 293] | – | 7.49 | 8.84 |
| O=C(N[C@H]1CCCc2ccccc21)n1c(=O)n(CC2CCCCC2)c2ccccc21 [Example 197] | – | 7.88 | 9.11 |
| CC(C)(C)[C@H](NC(=O)n1c(=O)n(CC2CCOCC2)c2ccccc21)C(=O)NCCCO [Example 318] | – | 6.64 | 7.62 |
| CC(C)(C)[C@H](NC(=O)n1c(=O)n(CC2CCCCC2)c2ccc(Cl)cc21)C(N)=O [Example 166] | – | 7.50 | 8.60 |
| CCCCCn1c(=O)n(C(=O)N[C@H]2CCCC[C@@H]2O)c2ccccc21 [Example 193] | – | 6.21 | 7.17 |
| CC(C)(C)[C@H](NC(=O)n1c(=O)n(Cc2ccccc2)c2ccccc21)C(N)=O [Example 348] | – | 7.22 | 8.25 |
| CC(C)(C)[C@H](NC(=O)n1c(=O)n(Cc2ccccc2)c2ccccc21)c1nnc(N)o1 [Example 359] | – | 7.10 | 8.51 |
